Data from ChEMBL document CHEMBL1909046, “DrugMatrix in vitro pharmacology data”.

Assays:
[1] = target: T1, Vasoactive intestinal polypeptide receptor 1 (Homo sapiens, UniProt P32241); format: cell membranes, Membrane; settings: ht-29; further: in other assays of this panel Not Active means under 50% inhibition at 10 µM
T1 sequence (P32241 whole entry): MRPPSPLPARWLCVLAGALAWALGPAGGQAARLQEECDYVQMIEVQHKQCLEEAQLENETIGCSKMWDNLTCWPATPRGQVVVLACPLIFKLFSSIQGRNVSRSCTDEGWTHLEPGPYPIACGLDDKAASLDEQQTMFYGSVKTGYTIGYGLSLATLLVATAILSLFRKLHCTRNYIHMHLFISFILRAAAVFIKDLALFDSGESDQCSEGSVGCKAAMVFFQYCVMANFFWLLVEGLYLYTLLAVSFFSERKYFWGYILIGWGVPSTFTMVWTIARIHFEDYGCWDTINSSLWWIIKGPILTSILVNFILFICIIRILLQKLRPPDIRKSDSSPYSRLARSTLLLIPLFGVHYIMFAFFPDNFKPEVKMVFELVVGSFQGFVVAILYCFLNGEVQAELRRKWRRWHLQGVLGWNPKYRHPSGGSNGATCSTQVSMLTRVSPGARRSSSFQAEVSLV

Carbonic anhydrase 2 = Carbonic anhydrase 2 (Homo sapiens, UniProt P00918); test: DRUGMATRIX: Carbonic Anhydrase II enzyme inhibition (substrate: 4-Nitrophenyl acetate (4-NPA)); format: tissue-based, Erythrocyte; settings: erythrocyte; Not Active = under 50% inhibition at 10 µM
[2] = target: Sodium-dependent dopamine transporter (Homo sapiens, UniProt Q01959); test: DRUGMATRIX: Dopamine Transporter radioligand binding (ligand: [125I] RTI-55); format: cell membranes, CHO-K1, Membrane; settings: Not Active = under 50% inhibition at 10 µM
Sodium-dependent dopamine transporter, sequence (Q01959 whole entry): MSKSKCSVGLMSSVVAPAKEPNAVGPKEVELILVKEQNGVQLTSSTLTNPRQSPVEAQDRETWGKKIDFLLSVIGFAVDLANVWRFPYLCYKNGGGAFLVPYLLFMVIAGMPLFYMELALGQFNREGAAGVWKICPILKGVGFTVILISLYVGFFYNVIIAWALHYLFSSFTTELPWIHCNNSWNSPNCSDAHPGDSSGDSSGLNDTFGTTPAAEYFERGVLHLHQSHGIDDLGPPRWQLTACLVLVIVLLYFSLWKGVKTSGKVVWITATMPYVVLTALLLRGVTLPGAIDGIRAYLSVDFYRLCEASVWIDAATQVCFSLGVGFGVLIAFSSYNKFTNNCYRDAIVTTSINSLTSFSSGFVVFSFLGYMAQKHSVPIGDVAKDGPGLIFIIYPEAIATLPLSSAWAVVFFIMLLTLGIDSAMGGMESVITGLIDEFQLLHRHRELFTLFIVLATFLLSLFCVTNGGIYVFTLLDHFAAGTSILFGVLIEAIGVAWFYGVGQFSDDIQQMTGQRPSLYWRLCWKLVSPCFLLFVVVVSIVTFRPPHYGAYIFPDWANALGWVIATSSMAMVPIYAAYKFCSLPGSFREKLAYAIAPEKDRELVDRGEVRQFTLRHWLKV

[3] = DRUGMATRIX: GABAA, Flunitrazepam, Central radioligand binding (ligand: [3H] Flunitrazepam); format: cell membranes, Rattus norvegicus, Wistar, Brain, Membrane; settings: Not Active = under 50% inhibition at 10 µM
[4] = target: Protein kinase C alpha type (Homo sapiens, UniProt P17252); format: cell-based; settings: sf9;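 further: inhibition of PKCalpha kinase activity measured in an enzyme assay with histone as the phosphorylation substrate; in other assays of this panel Not Active means under 50% inhibition at 10 µM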
Acetylcholinesterase = Acetylcholinesterase (Homo sapiens, UniProt P22303); test: DRUGMATRIX: Acetylcholinesterase enzyme inhibition (substrate: acetylthiocholine); format: cell-based, HEK293; settings: hek293; Not Active = under 50% inhibition at 10 µM
Acetylcholinesterase, sequence (P22303 whole entry): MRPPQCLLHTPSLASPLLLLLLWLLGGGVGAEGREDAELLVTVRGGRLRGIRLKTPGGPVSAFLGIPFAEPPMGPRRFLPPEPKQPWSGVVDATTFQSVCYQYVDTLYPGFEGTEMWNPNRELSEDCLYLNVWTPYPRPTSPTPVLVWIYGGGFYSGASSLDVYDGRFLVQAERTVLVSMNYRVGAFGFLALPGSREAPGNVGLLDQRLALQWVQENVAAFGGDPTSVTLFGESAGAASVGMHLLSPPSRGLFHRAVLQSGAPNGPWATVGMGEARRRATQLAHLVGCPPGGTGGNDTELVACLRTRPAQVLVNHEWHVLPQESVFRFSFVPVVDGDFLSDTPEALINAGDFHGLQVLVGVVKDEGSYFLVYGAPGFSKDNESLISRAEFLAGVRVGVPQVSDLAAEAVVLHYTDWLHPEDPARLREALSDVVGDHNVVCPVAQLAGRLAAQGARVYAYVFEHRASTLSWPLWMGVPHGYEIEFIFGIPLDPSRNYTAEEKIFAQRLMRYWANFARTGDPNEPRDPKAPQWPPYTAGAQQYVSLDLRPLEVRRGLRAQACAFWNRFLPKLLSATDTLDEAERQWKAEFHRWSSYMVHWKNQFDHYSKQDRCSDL

Cytochrome P450 2E1 = Cytochrome P450 2E1 (Homo sapiens, UniProt P05181); settings: bti-tn-5b1-4; further: in other assays of this panel Not Active means under 50% inhibition at 10 µM
Cytochrome P450 2E1, sequence (P05181 whole entry): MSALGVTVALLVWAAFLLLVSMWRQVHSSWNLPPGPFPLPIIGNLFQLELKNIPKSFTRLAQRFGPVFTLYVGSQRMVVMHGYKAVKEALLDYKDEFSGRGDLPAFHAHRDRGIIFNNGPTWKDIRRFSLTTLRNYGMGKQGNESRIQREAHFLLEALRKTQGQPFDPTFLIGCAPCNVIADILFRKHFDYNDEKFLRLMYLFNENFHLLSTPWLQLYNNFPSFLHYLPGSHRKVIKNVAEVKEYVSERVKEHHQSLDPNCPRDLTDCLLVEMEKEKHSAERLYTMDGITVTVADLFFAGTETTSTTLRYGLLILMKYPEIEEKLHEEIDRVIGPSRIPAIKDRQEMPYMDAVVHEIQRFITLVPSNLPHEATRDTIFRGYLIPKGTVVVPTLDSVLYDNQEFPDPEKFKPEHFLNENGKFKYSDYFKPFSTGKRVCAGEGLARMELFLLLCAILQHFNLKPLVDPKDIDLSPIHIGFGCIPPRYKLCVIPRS

Compound | IC50 [1] | IC50 (Carbonic anhydrase 2) | IC50 ([2]; cho-k1) | IC50 [3] | Ki [3] | IC50 [4] | IC50 (Acetylcholinesterase) | IC50 (Cytochrome P450 2E1) | Ki (Cytochrome P450 2E1) | IC50 ([2]; read-out: IC50) | Ki ([2]; read-out: Ki) | Ki [1] | Ki (Carbonic anhydrase 2) | Ki ([2]; cho-k1) | Ki [4] | Ki (Acetylcholinesterase)
Nc1nc(N)nc(NC2CC2)n1 [CYROMAZINE] | Not Active | Not Active | Not Active | Not Active | Not Active | Not Active | Not Active | Not Active | Not Active | – | – | – | – | – | – | –
CC[C@H](C)C(=O)O[C@H]1C[C@H](O)C=C2C=C[C@H](C)[C@H](CC[C@@H](O)C[C@@H](O)CC(=O)O)[C@H]21 [PRAVASTATIN] | Not Active | Not Active | Not Active | Not Active | Not Active | Not Active | Not Active | Not Active | Not Active | – | – | – | – | – | – | –
OCCN1CCN(CCCN2c3ccccc3Sc3ccc(Cl)cc32)CC1 [PERPHENAZINE] | Not Active | Not Active | Not Active | Not Active | Not Active | Not Active | Not Active | Not Active | Not Active | – | – | – | – | – | – | –
CC(C)(C)c1ccc(S(=O)(=O)/C=C/C#N)cc1 [BAY-11-7085] | Not Active | Not Active | Not Active | Not Active | Not Active | Not Active | Not Active | Not Active | Not Active | – | – | – | – | – | – | –
CCC(=O)O[C@H]1[C@H](O[C@@H]2[C@@H](C)[C@H](O[C@H]3C[C@@](C)(OC)[C@@H](O)[C@H](C)O3)[C@@H](C)C(=O)O[C@H](CC)[C@@](C)(O)[C@H](O)[C@@H](C)C(=O)[C@H](C)C[C@@]2(C)O)O[C@H](C)C[C@@H]1N(C)C [ERYTHROMYCIN PROPIONATE] | Not Active | Not Active | Not Active | Not Active | Not Active | Not Active | Not Active | Not Active | Not Active | – | – | – | – | – | – | –
C#C[C@]1(O)CC[C@H]2[C@@H]3CCc4cc(O)ccc4[C@H]3CC[C@@]21C [ETHINYL ESTRADIOL] | Not Active | Not Active | – | Not Active | Not Active | Not Active | Not Active | Not Active | Not Active | 559 nM | 444 nM | – | – | – | – | –
Nc1nc(Cl)nc2c1ncn2[C@H]1C[C@H](O)[C@@H](CO)O1 [CLADRIBINE] | Not Active | Not Active | Not Active | Not Active | Not Active | Not Active | Not Active | Not Active | Not Active | – | – | – | – | – | – | –
CC(C)(Sc1cc(C(C)(C)C)c(O)c(C(C)(C)C)c1)Sc1cc(C(C)(C)C)c(O)c(C(C)(C)C)c1 [PROBUCOL] | Not Active | Not Active | Not Active | Not Active | Not Active | Not Active | Not Active | Not Active | Not Active | – | – | – | – | – | – | –
CN1C[C@H](C(=O)N[C@]2(C)O[C@@]3(O)[C@@H]4CCCN4C(=O)[C@H](Cc4ccccc4)N3C2=O)C[C@@H]2c3cccc4[nH]cc(c34)C[C@H]21 [DIHYDROERGOTAMINE] | Not Active | Not Active | Not Active | Not Active | Not Active | Not Active | Not Active | Not Active | Not Active | – | – | – | – | – | – | –
CC(CCc1ccc(O)cc1)NCCc1ccc(O)c(O)c1 (centres undefined) [DOBUTAMINE] | Not Active | Not Active | – | Not Active | Not Active | Not Active | Not Active | Not Active | Not Active | 155 nM | 123 nM | – | – | – | – | –
POLYVINYL ALCOHOL | Not Active | Not Active | Not Active | Not Active | Not Active | Not Active | Not Active | Not Active | Not Active | – | – | Not Active | Not Active | Not Active | Not Active | Not Active
CS(=O)(=O)OCCCCOS(C)(=O)=O [BUSULFAN] | Not Active | Not Active | Not Active | Not Active | Not Active | Not Active | Not Active | Not Active | Not Active | – | – | – | – | – | – | –
CC[C@H]1OC(=O)[C@H](C)[C@@H](O[C@H]2C[C@@](C)(OC)[C@@H](O)[C@H](C)O2)[C@H](C)[C@@H](O[C@@H]2O[C@H](C)C[C@H](N(C)C)[C@H]2O)[C@](C)(O)C[C@@H](C)CN(C)[C@H](C)[C@@H](O)[C@]1(C)O [AZITHROMYCIN] | Not Active | Not Active | Not Active | Not Active | Not Active | Not Active | Not Active | Not Active | Not Active | – | – | – | – | – | – | –
